Earlier results, collected in patent US5385922A, “Thiazolidine derivatives” (Cedona Pharmaceuticals B.V., priority 1990, dated 1995).
pIC50: −log10 of the molar value.

Legend:
[1] = system: angiotensin converting enzyme (ACE); conditions: literature, WO 89/12627, cited from earlier work
[2] = system: rat aorta contracted using phenylephrine; conditions: cited from earlier work

For `C[C@H](CSN=O)C(=O)N1CCC[C@H]1C(=O)O` [S-ni-trosocaptopril], the “ACE-inhibiting effect compared with captopril (in words)” value [1] is given as “comparable to that of captopril”, the pIC50 ([1]; read-out: ACE-inhibiting effect IC50) is given as ~9.00 and the pIC50 ([2]; rat aorta contracted using phenylephrine, read-out: relaxing effect via the NO portion, IC50) is given as ~7.00. For the same compound, the “relaxing concentration relative to ACE-inhibiting concentration” value ([2]; relaxation IC50 vs ACE-inhibition IC50) was “about 100 times higher”.
